Results reported in the supplement of paper PMC10307832.

Tests used:
Assay in all cases: relative viability (nuclei count vs DMSO), 5 days (fraction); higher = more cells survive
Dovitinib + Dasatinib = compound: CN1CCN(c2ccc3nc(-c4c(N)c5c(F)cccc5[nH]c4=O)[nH]c3c2)CC1 [Dovitinib] + Cc1nc(Nc2ncc(C(=O)Nc3c(C)cccc3Cl)s2)cc(N2CCN(CCO)CC2)n1 [Dasatinib] (partner 0.075 µM)
Procedure, shortened: (§1)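 Lung cancer cell lines, seeded in 1536-well plates, were treated the following day by pin tool with a single drug or with five library-drug doses (not always all listed) in √10 steps on top of a fixed anchor-drug dose. Cells were fixed and nuclei stained in one step after 5 days, and nuclei were counted. Relative viability is the nuclei count for treated wells divided by that for vehicle wells, reported as medians of duplicate plates.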

Dovitinib + Vorinostat = compound: CN1CCN(c2ccc3nc(-c4c(N)c5c(F)cccc5[nH]c4=O)[nH]c3c2)CC1 [Dovitinib] + O=C(CCCCCCC(=O)Nc1ccccc1)NO [Vorinostat] (partner 1 µM)
Procedure, shortened: as §1

Dovitinib + Crizotinib = compound: CN1CCN(c2ccc3nc(-c4c(N)c5c(F)cccc5[nH]c4=O)[nH]c3c2)CC1 [Dovitinib] + C[C@@H](Oc1cc(-c2cnn(C3CCNCC3)c2)cnc1N)c1c(Cl)ccc(F)c1Cl [Crizotinib] (partner 1 µM)
Procedure, shortened: as §1

Dovitinib + Pictilisib = compound: CN1CCN(c2ccc3nc(-c4c(N)c5c(F)cccc5[nH]c4=O)[nH]c3c2)CC1 [Dovitinib] + CS(=O)(=O)N1CCN(Cc2cc3nc(-c4cccc5[nH]ncc45)nc(N4CCOCC4)c3s2)CC1 [Pictilisib] (partner 1 µM)
Procedure, shortened: as §1

| Cell Line | relative viability (Dovitinib + Dasatinib; first compound 0.02 µM) | relative viability (Dovitinib + Dasatinib; first compound 0.06325 µM) | relative viability (Dovitinib + Dasatinib; first compound 0.2 µM) | relative viability (Dovitinib + Dasatinib; first compound 0.6325 µM) | relative viability (Dovitinib + Dasatinib; first compound 2 µM) | relative viability (Dovitinib + Vorinostat; first compound 0.02 µM) | relative viability (Dovitinib + Vorinostat; first compound 0.06325 µM) | relative viability (Dovitinib + Vorinostat; first compound 0.2 µM) | relative viability (Dovitinib + Vorinostat; first compound 0.6325 µM) | relative viability (Dovitinib + Vorinostat; first compound 2 µM) | relative viability (Dovitinib + Crizotinib; first compound 0.02 µM) | relative viability (Dovitinib + Crizotinib; first compound 0.06325 µM) | relative viability (Dovitinib + Crizotinib; first compound 0.2 µM) | relative viability (Dovitinib + Crizotinib; first compound 0.6325 µM) | relative viability (Dovitinib + Crizotinib; first compound 2 µM) | relative viability (Dovitinib + Pictilisib; first compound 0.02 µM) | relative viability (Dovitinib + Pictilisib; first compound 0.06325 µM) | relative viability (Dovitinib + Pictilisib; first compound 0.2 µM) | relative viability (Dovitinib + Pictilisib; first compound 0.6325 µM) | relative viability (Dovitinib + Pictilisib; first compound 2 µM) |
| --- | --- | --- | --- | --- | --- | --- | --- | --- | --- | --- | --- | --- | --- | --- | --- | --- | --- | --- | --- | --- |
| NCI-H3122 | 0.721 | 0.857 | 0.914 | 0.832 | 0.749 | 0.823 | 0.91 | 1.07 | 0.951 | 1.08 | 0.294 | 0.27 | 0.287 | 0.284 | 0.263 | 0.793 | 0.588 | 0.47 | 0.603 | 0.66 |
| PC-3 [JPC-3] | 1.03 | 0.999 | 0.967 | 1 | 0.986 | 0.888 | 0.77 | 0.948 | 0.945 | 0.914 | 0.928 | 0.923 | 0.963 | 1.01 | 0.984 | 0.742 | 0.75 | 0.818 | 0.897 | 0.877 |
| PC-14 | 0.257 | 0.273 | 0.238 | 0.3 | 0.331 | 0.771 | 0.938 | 0.778 | 0.694 | 0.757 | 0.815 | 0.906 | 0.865 | 0.862 | 0.893 | 0.632 | 0.72 | 0.685 | 0.691 | 0.543 |
| RERF-LC-KJ | 0.842 | 0.842 | 0.998 | 0.765 | 0.915 | 0.654 | 0.681 | 0.761 | 0.667 | 0.685 | 0.796 | 0.817 | 0.86 | 0.815 | 0.861 | 0.556 | 0.643 | 0.472 | 0.428 | 0.49 |
| SK-LU-1 | 0.167 | 0.176 | 0.21 | 0.185 | 0.19 | 0.753 | 0.913 | 0.759 | 0.715 | 0.805 | 0.835 | 0.984 | 0.86 | 0.958 | 0.974 | 0.64 | 0.657 | 0.513 | 0.73 | 0.576 |
| SK-MES-1 | 0.349 | 0.426 | 0.417 | 0.414 | 0.477 | 1.08 | 1.13 | 1.17 | 1.09 | 1.12 | 1.04 | 0.957 | 0.932 | 1.01 | 0.954 | 0.354 | 0.359 | 0.349 | 0.36 | 0.327 |
| SW 1573 | 0.461 | 0.502 | 0.513 | 0.409 | 0.651 | 0.65 | 0.908 | 0.6 | 0.702 | 1.02 | 0.773 | 0.809 | 0.805 | 0.749 | 0.804 | 0.487 | 0.545 | 0.483 | 0.382 | 0.512 |
| UMC-11 | 0.423 | 0.481 | 0.492 | 0.493 | 0.492 | 0.449 | 0.422 | 0.478 | 0.383 | 0.431 | 0.636 | 0.716 | 0.576 | 0.514 | 0.733 | 0.806 | 0.783 | 0.85 | 0.85 | 0.735 |
